From patent US20180237399A1, “COMPOUNDS HAVING AGONISTIC EFFECT AGAINST GPR84, PREPARATION METHOD FOR COMPOUNDS AND USE OF COMPOUNDS” (SHANGHAI INSTITUTE OF MATERIA MEDICA, CHINESE ACADEMY OF …, priority 2015, published 2018)

Molecular target: T1, GPR84 (Homo sapiens, UniProt Q9NQS5)
Experiment: not given
Settings: in words; cited from earlier work
Target sequence in this assay (Q9NQS5 whole entry, species assumed): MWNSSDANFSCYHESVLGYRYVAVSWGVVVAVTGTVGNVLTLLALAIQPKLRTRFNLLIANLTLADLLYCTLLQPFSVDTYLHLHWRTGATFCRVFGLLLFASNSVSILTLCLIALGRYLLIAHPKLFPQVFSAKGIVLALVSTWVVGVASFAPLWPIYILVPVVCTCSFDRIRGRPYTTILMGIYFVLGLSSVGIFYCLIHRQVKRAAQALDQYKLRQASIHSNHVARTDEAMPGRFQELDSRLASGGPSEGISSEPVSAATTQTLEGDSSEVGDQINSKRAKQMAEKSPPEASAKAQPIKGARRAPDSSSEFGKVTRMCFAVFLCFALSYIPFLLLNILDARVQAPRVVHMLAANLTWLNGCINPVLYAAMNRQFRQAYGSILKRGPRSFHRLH

SMILES	GPR84 agonist activities
CCCCCCCCC(O)C(=O)O (stereo not shown) [2-OH—C10]	some GPR84 agonist activities
CCCCCCCCCCC(O)C(=O)O (stereo not shown) [2-OH—C12]	some GPR84 agonist activities
CCCCCCCC(O)CC(=O)O (stereo not shown) [3-OH—C10]	some GPR84 agonist activities
CCCCCCCCCC(O)CC(=O)O (stereo not shown) [3-OH—C12]	some GPR84 agonist activities

Molecular target: T1, GPR84
Experiment: Detection of cytoplasmic calcium ion concentration with Fluo-4 fluorescent dye tracer assay (GPR84 agonist activity)
Assay type: cell-based
Design: expressed in transfected cells; host or cells: HEK293
Settings: HEK293 cell line transfected with GPR84 and G16; Fluo-4 calcium fluorescence
Method: Detection of Cytoplasmic Calcium Ion Concentration with Fluo-4 Fluorescent Dye Tracer Assay
The GPR84 agonist activity of the compounds of the invention was tested.
The human GPR84 cell line was obtained by transfecting a plasmid encoding the GPR84 and G16 proteins in the HEK293 cell line. The fluorescent dye Fluo-4 AM was purchased from Invitrogen.
Intracellular Ca^2+ ion is a very important second messenger of G protein-coupled receptor signaling pathway. […] Fluo-4 is a Ca^2+ ion-specific fluorescent probe that binds quantitatively to Ca^2+ ions and emits fluorescence. Therefore, fluorescence assay was used to detect the agonistic activity of compounds in 96-well or 384-well flat bottom microplates. The GPR84 cells were incubated with the Fluo-4 fluorescent dye and added with different concentrations of compounds for stimulation. The changes in the intracellular calcium concentration were detected by the fluorescence intensity of dyes.
• 1. […] The pH of the solution was adjusted to 7.4 with hydrochloric acid or NaOH. The solution was filtered, and stored at 4° C. for one month. • 2. Preparation of Ca^2+ buffer: Firstly, a 560 mM D-glucose (100×) stock solution and a 250 mM Sulfinpyrazone (1000×) stock solution were prepared. Then, to 100 mL of HBSS, was added BSA (0.5 g), 560 mM D-glucose stock solution (1 mL) and 250 mM Sulfinpyrazone (100 μL). […] The Ca^2+ buffer was mixed and used as freshly prepared. • 3. Preparation of dyes solution: Firstly, a stock solution of 3% Cremophor EL (100×) in PBS and a stock solution of 2 mM Fluo-4 (1000×) in DMSO was prepared. Secondly, one milliliter of dye solution was prepared by mixing 1 μL of 2 mM Fluo-4 AM with 10 μL of 3% Cremophor EL and diluting with 1 mL of Ca^2+ buffer and mixed. • 4. The GPR84 cells were cultured in a 96-well plate at a starting density of 4×10^4 cells. The cells were continually cultured for more than 24 hours so that the cell density was 80-90% for detection. • 5. The culture fluid was removed from the cells to be tested. The cells were added freshly prepared dyes and incubated in a 37-degree incubator for 40 minutes to 50 minutes. • 6. Preparation of […] solution: Compounds are dissolved and diluted to 3-fold the final working concentration with freshly prepared Ca^2+ buffer. If compounds are dissolved in DMSO, the final DMSO concentration should not exceed 1%. • 7. After the incubation completed, the dye was removed. The cells were washed with Ca^2+ buffer and then incubated with an additional 50 μL of Ca^2+ buffer for 5 to 10 minutes. • 8. The cells were stimulated with 25 μL/well of Ca^2′ buffer containing different concentrations of the compound. The plate was read by using the FlexStation III Multi-Mode Microplate Reader. The changes in the intracellular calcium concentration were detected by the fluorescence intensity of dyes.
Target sequence in this assay (Q9NQS5 whole entry): as the sequence (Q9NQS5 whole entry, species assumed) above

SMILES	EC50 [nM]
CCCCCCCc1nc(O)cc(O)n1 [LY210-b]	12.7
CCCCCSc1nc(O)cc(O)n1 [LY214-5]	2480
CCC#CCCSc1nc(O)cc(O)n1 [LY224-a]	653
CCCCCCCCc1nc(O)cc(O)n1 [LY224-b]	11.4
CCCCCCCCc1cc(=O)[nH]c(=O)[nH]1 [LY224-c]	811
CCCCCCCCc1nc(O)nc(O)n1 [LY225-b]	1020
CC(C)CCCSc1nc(O)cc(O)n1 [LY228-6b]	641
CCCCCCCC(C)c1nc(O)cc(O)n1 (stereo not shown) [LY238-c]	299
CCCCCCCCCc1cc(O)cc(=O)o1 [LY238-d]	3.51
CCCCCCCSc1nc(O)cc(O)n1 [LY242-7]	231
CCCCCCCCSc1nc(O)cc(O)n1 [LY256-8]	264
Oc1cc(O)nc(SCCCc2ccccc2)n1 [LY262-a]	573
CCc1ccc(CSc2nc(O)cc(O)n2)cc1 [LY262-b]	271
O=c1cc(O)nc(SCCc2ccc(F)cc2)[nH]1 [LY266-a]	2940
Oc1cc(O)nc(SCCc2ccccc2F)n1 [LY266-b]	1990
Oc1cc(O)nc(SCCc2cccc(F)c2)n1 [LY266-c]	2590
Oc1cc(O)nc(SCCCCCc2ccccc2)n1 [LY290-a]	1080
CCCCCCCCCCCCSc1nc(O)cc(O)n1 [LY312-12]	1160
CCCCCCCCCCCCCCSc1nc(O)cc(O)n1 [LY340-14]	25700
CCCCCCCCCCCCCCCCSc1nc(O)cc(O)n1 [LY368-16]	11300

Second part, the molecule after the results:

EC50 [nM]	SMILES
3670	CCCCCc1nc(O)cc(O)n1 [LY182]
2100	CC(C)CCCc1nc(O)cc(O)n1 [LY196b]
1.25	CCCCCCCc1cc(O)cc(O)n1 [LY209]
21600	C#CCCCSc1nc(O)cc(O)n1 [LY210]
43400	Oc1cc(O)nc(SCC2CCC2)n1 [LY212]
1.34	CCCCCCCCc1cc(O)cc(O)n1 [LY223]
924	CC/C=C\CCSc1nc(O)cc(O)n1 [LY226]
435	CCCCCCCCCc1cc(O)cc(O)c1 [LY236]
48.7	CCCCCCCCCc1nc(O)cc(O)n1 [LY238]
6.14	CCCCCCCCNc1nc(O)cc(O)n1 [LY239]
340	CCCCCCCCc1cc(=O)[nH]c(=S)[nH]1 [LY240]
6.1	CCCCc1ccc(-c2cc(O)cc(O)n2)cc1 [LY243]
88.1	CCc1ccc(CCc2nc(O)cc(O)n2)cc1 [LY244]
3860	Oc1cc(O)nc(SCCc2ccccc2)n1 [LY248]
435	Oc1cc(O)nc(SCCCCc2ccccc2)n1 [LY276]

Molecular target: T1, GPR84
Experiment: not given
Settings: CHO-GPR84 cells, cAMP assay; read-out: potencies (GPR84 agonists); cited from earlier work
Target sequence in this assay (Q9NQS5 whole entry, species assumed): as above

SMILES	EC50 [nM]
CCCCCCCCCCCC(=O)O [lauric acid]	9000
